Source: ChEMBL document CHEMBL4507266, “Data for DCP probe BAY-784” (2021)

Key:
[1] = target: Serine/threonine-protein kinase PAK 4 (Homo sapiens) (UniProt O96013); settings: Compound concentration 1000.0 nM
[2] = target: TGF-beta receptor type-2 (Homo sapiens) (UniProt P37173); settings: Compound concentration 1000.0 nM
[3] = tested on: Tyrosine-protein kinase ABL1 (Homo sapiens), P00519 [M351T]; settings: Compound concentration 1000.0 nM
[4] = target: Ephrin type-B receptor 6 (Homo sapiens) (UniProt O15197); settings: Compound concentration 1000.0 nM
[5] = target: Serine/threonine-protein kinase TAO1 (Homo sapiens) (UniProt Q7L7X3); settings: Compound concentration 1000.0 nM
[6] = target: Mitogen-activated protein kinase kinase kinase kinase 4 (Homo sapiens) (UniProt O95819); settings: Compound concentration 1000.0 nM
[7] = target: Cyclin-dependent kinase 4 (Homo sapiens) (UniProt P11802); settings: Compound concentration 1000.0 nM
[8] = target: Mitogen-activated protein kinase 7 (Homo sapiens) (UniProt Q13164); settings: Compound concentration 1000.0 nM
[9] = target: Proto-oncogene tyrosine-protein kinase receptor Ret (Homo sapiens) (UniProt P07949); settings: Compound concentration 1000.0 nM
[10] = target: Serine/threonine-protein kinase NIM1 (Homo sapiens) (UniProt Q8IY84); settings: Compound concentration 1000.0 nM
[11] = target: Tyrosine-protein kinase Tec (Homo sapiens) (UniProt P42680); settings: Compound concentration 1000.0 nM
[12] = target: Serine/threonine-protein kinase PLK2 (Homo sapiens) (UniProt Q9NYY3); settings: Compound concentration 1000.0 nM
[13] = tested on: Hepatocyte growth factor receptor (Homo sapiens), P08581 [Y1235D]; settings: Compound concentration 1000.0 nM
[14] = target: Activin receptor type-1 (Homo sapiens) (UniProt Q04771); settings: Compound concentration 1000.0 nM
[15] = target: Receptor-interacting serine/threonine-protein kinase 1 (Homo sapiens) (UniProt Q13546); settings: Compound concentration 1000.0 nM
[16] = target: Serine/threonine-protein kinase Nek9 (Homo sapiens) (UniProt Q8TD19); settings: Compound concentration 1000.0 nM
[17] = target: Serine/threonine-protein kinase 17A (Homo sapiens) (UniProt Q9UEE5); settings: Compound concentration 1000.0 nM
[18] = target: Casein kinase II subunit alpha (Homo sapiens) (UniProt P68400); settings: Compound concentration 1000.0 nM
[19] = target: 5'-AMP-activated protein kinase catalytic subunit alpha-2 (Homo sapiens) (UniProt P54646); settings: Compound concentration 1000.0 nM
[20] = target: Calcium/calmodulin-dependent protein kinase type 1G (Homo sapiens) (UniProt Q96NX5); settings: Compound concentration 1000.0 nM
[21] = target: Phosphatidylinositol 3-kinase catalytic subunit type 3 (Homo sapiens) (UniProt Q8NEB9); settings: Compound concentration 1000.0 nM
[22] = target: Vascular endothelial growth factor receptor 2 (Homo sapiens) (UniProt P35968); settings: Compound concentration 1000.0 nM
[23] = target: Serine/threonine-protein kinase Nek11 (Homo sapiens) (UniProt Q8NG66); settings: Compound concentration 1000.0 nM
[24] = target: Serine/threonine-protein kinase Nek3 (Homo sapiens) (UniProt P51956); settings: Compound concentration 1000.0 nM
[25] = target: Receptor tyrosine-protein kinase erbB-2 (Homo sapiens) (UniProt P04626); settings: Compound concentration 1000.0 nM
[26] = target: Serine/threonine-protein kinase 32C (Homo sapiens) (UniProt Q86UX6); settings: Compound concentration 1000.0 nM
[27] = target: Inhibitor of nuclear factor kappa-B kinase subunit alpha (Homo sapiens) (UniProt O15111); settings: Compound concentration 1000.0 nM
[28] = target: Mitogen-activated protein kinase 13 (Homo sapiens) (UniProt O15264); settings: Compound concentration 1000.0 nM
[29] = target: cGMP-dependent protein kinase 2 (Homo sapiens) (UniProt Q13237); settings: Compound concentration 1000.0 nM
[30] = target: Tyrosine-protein kinase TXK (Homo sapiens) (UniProt P42681); settings: Compound concentration 1000.0 nM
[31] = tested on: Tyrosine-protein kinase ABL1 (Homo sapiens), P00519 [T315I]; settings: Compound concentration 1000.0 nM
[32] = tested on: eIF-2-alpha kinase GCN2 (Homo sapiens), Q9P2K8 [S808G]; settings: Compound concentration 1000.0 nM
[33] = tested on: Receptor-type tyrosine-protein kinase FLT3 (Homo sapiens), P36888 [N841I]; settings: Compound concentration 1000.0 nM
[34] = tested on: Mast/stem cell growth factor receptor Kit (Homo sapiens), P10721 [V559D,T670I]; settings: Compound concentration 1000.0 nM
[35] = target: Serine/threonine-protein kinase Sgk3 (Homo sapiens) (UniProt Q96BR1); settings: Compound concentration 1000.0 nM
[36] = target: Mitogen-activated protein kinase kinase kinase 4 (Homo sapiens) (UniProt Q9Y6R4); settings: Compound concentration 1000.0 nM
[37] = target: Serine/threonine-protein kinase PAK 5 (Homo sapiens) (UniProt Q9P286); settings: Compound concentration 1000.0 nM
[38] = target: Glycogen synthase kinase-3 beta (Homo sapiens) (UniProt P49841); settings: Compound concentration 1000.0 nM
[39] = target: Cyclin-dependent kinase 11B (Homo sapiens) (UniProt P21127); settings: Compound concentration 1000.0 nM
[40] = target: Beta-3 adrenergic receptor (Homo sapiens) (UniProt P13945); settings: Compound concentration 10.0 uM
[41] = target: Eukaryotic translation initiation factor 2-alpha kinase 1 (Homo sapiens) (UniProt Q9BQI3); settings: Compound concentration 1000.0 nM
[42] = target: Mitogen-activated protein kinase 8 (Homo sapiens) (UniProt P45983); settings: Compound concentration 1000.0 nM
[43] = target: Serine/threonine-protein kinase 4 (Homo sapiens) (UniProt Q13043); settings: Compound concentration 1000.0 nM
[44] = tested on: Phosphatidylinositol 4,5-bisphosphate 3-kinase catalytic subunit alpha isoform (Homo sapiens), P42336 [E545K]; settings: Compound concentration 1000.0 nM
[45] = target: Bone morphogenetic protein receptor type-1A (Homo sapiens) (UniProt P36894); settings: Compound concentration 1000.0 nM
Bone morphogenetic protein receptor type-1A (Homo sapiens), sequence (P36894 whole entry): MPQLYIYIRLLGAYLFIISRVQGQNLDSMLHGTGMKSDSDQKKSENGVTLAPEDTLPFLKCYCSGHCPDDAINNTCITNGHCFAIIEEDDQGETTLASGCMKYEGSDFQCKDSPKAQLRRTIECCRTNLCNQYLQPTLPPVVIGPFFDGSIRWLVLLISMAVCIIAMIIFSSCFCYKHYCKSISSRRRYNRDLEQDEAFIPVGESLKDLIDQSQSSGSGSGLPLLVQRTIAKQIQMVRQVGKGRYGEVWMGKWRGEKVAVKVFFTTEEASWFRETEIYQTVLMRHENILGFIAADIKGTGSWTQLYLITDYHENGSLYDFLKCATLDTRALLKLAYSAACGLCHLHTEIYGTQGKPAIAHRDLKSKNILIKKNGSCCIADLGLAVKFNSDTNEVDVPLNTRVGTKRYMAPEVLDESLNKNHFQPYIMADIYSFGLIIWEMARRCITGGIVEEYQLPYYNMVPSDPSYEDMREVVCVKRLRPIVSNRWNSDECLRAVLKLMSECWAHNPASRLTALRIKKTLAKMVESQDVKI

Phosphatidylinositol 4,5-bisphosphate 3-kinase catalytic subunit alpha isoform (Homo sapiens), P42336 [E545K], sequence (P42336 whole entry E545K, canonical isoform): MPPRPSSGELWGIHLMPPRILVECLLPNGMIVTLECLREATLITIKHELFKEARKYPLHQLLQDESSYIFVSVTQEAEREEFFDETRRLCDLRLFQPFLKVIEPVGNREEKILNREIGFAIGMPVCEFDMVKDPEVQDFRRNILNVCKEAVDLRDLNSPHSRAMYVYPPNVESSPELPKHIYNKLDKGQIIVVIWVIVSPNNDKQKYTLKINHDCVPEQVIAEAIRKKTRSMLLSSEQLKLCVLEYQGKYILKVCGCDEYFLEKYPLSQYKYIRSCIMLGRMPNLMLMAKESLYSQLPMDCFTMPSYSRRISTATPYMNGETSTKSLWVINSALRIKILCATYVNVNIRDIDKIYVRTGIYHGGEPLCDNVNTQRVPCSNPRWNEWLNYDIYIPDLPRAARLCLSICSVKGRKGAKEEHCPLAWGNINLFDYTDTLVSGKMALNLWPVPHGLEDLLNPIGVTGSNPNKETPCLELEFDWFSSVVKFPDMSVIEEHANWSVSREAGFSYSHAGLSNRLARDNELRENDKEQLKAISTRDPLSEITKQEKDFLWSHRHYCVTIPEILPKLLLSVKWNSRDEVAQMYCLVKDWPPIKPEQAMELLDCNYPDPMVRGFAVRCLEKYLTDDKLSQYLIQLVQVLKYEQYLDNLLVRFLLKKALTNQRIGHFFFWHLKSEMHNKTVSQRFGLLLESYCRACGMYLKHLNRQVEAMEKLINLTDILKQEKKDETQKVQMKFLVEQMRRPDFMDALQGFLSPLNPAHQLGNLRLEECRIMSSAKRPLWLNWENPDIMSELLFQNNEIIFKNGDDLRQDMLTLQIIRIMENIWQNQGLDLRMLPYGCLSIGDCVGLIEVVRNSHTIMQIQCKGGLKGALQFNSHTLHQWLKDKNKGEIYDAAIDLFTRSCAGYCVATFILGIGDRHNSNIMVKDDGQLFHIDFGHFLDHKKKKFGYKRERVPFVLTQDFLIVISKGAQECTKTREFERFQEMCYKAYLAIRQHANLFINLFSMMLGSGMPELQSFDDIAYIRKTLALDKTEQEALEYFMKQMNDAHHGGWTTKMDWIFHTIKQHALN
Serine/threonine-protein kinase 17A (Homo sapiens), sequence (Q9UEE5 whole entry): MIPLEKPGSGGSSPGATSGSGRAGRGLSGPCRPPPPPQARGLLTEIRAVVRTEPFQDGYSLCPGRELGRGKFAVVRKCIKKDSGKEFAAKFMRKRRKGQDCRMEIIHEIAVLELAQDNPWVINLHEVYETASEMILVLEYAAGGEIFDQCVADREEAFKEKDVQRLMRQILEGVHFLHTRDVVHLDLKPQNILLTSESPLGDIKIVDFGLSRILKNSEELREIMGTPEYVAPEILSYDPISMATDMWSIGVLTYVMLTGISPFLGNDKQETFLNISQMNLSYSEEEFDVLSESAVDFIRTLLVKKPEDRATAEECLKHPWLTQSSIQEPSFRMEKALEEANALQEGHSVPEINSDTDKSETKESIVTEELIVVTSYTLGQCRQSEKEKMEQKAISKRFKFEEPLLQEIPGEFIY
Ephrin type-B receptor 6 (Homo sapiens), sequence (O15197 whole entry): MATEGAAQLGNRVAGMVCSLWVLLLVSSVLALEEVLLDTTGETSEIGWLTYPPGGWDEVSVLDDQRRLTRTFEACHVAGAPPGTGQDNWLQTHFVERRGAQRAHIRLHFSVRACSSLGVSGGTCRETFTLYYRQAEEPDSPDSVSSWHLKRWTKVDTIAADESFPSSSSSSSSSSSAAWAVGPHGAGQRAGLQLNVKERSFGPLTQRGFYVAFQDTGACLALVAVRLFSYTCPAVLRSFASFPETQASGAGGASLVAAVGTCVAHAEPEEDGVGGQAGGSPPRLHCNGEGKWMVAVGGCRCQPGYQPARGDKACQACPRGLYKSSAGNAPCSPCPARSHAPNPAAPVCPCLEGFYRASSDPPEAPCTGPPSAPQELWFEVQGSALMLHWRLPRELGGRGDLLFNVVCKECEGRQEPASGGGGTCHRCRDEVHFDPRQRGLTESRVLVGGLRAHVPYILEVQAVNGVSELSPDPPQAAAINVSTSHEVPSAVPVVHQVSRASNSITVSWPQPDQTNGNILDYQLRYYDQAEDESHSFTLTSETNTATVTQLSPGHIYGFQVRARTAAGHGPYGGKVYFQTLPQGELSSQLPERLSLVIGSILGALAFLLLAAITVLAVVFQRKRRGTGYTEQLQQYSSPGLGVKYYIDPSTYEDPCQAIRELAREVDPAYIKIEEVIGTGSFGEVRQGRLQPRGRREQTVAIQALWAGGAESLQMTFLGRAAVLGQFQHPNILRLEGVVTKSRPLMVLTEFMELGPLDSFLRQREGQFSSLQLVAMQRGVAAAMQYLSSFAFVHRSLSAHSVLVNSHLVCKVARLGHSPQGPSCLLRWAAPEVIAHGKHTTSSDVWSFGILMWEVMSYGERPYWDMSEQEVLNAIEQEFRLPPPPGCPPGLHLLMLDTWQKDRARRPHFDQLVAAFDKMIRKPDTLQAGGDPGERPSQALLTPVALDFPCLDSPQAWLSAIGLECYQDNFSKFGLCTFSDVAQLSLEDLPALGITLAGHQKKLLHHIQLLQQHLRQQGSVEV
Receptor tyrosine-protein kinase erbB-2 (Homo sapiens), sequence (P04626 whole entry): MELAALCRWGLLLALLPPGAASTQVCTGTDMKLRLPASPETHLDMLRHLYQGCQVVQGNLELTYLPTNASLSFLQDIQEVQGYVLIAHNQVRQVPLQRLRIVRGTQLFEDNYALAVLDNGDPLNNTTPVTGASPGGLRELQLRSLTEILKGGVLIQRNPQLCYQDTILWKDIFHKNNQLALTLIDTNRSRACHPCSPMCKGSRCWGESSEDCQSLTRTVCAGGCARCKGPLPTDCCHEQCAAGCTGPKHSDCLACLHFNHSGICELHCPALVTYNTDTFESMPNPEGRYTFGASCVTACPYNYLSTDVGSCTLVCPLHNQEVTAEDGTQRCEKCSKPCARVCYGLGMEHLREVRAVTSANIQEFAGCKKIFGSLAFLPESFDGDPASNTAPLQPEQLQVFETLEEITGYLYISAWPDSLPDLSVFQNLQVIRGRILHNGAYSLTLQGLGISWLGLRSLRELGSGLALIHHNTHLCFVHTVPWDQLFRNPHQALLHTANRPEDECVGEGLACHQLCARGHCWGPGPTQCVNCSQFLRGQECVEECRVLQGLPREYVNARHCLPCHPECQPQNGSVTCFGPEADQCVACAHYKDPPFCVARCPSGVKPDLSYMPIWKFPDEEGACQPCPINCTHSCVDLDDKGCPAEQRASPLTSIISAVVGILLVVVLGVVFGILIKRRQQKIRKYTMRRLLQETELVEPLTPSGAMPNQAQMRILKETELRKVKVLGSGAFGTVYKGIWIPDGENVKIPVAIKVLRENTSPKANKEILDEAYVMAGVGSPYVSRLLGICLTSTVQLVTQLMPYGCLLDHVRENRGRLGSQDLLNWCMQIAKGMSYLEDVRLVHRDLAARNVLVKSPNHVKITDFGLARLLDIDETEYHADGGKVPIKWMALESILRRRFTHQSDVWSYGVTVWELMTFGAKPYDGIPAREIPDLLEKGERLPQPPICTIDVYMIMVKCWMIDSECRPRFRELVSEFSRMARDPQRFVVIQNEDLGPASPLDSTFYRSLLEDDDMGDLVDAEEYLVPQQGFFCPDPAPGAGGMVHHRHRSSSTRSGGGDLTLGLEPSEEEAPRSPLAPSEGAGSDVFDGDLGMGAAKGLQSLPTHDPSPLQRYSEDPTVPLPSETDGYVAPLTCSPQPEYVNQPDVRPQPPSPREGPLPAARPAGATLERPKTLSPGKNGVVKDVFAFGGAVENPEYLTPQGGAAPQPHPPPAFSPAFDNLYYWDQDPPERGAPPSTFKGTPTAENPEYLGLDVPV
Eukaryotic translation initiation factor 2-alpha kinase 1 (Homo sapiens), sequence (Q9BQI3 whole entry): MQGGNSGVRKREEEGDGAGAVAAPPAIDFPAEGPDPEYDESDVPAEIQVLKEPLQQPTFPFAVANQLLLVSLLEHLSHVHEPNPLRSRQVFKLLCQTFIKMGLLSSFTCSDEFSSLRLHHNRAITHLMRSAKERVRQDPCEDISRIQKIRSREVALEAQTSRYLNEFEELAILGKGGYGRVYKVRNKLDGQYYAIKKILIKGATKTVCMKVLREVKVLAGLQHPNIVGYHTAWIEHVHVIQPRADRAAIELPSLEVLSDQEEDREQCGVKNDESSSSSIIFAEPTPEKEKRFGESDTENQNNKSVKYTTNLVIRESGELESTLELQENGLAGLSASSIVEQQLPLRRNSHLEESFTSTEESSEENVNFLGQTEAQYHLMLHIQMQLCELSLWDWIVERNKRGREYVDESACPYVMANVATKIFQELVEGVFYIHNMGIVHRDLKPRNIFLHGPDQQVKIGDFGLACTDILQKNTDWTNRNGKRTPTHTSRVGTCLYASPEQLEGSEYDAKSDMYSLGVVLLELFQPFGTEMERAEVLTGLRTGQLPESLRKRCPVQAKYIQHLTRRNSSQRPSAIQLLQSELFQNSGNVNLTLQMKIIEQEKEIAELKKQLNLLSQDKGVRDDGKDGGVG

O=C(NCc1ncc(C(F)(F)F)cc1Cl)c1ccc2c(c1)C1(CCS(=O)(=O)CC1)[C@@H](C1CC1)N2S(=O)(=O)c1ccc(F)cc1 [BAY-786]
residual activity [1]: 89%
residual activity [2]: 71%
residual activity [3]: 94%
residual activity [4]: 94%
residual activity [5]: 91%
residual activity [6]: 100%
residual activity [7]: 82%
residual activity [8]: 97%
residual activity [9]: 100%
residual activity [10]: 78%
residual activity [11]: 100%
residual activity [12]: 74%
residual activity [13]: 100%
residual activity [14]: 97%
residual activity [15]: 30%
residual activity [16]: 72%
residual activity [17]: 73%
residual activity [18]: 67%
residual activity [19]: 100%
residual activity [20]: 100%
residual activity [21]: 89%
residual activity [22]: 80%
residual activity [23]: 100%
residual activity [24]: 100%
residual activity [25]: 100%
residual activity [26]: 100%
residual activity [27]: 84%
residual activity [28]: 86%
residual activity [29]: 89%
residual activity [30]: 83%
residual activity [31]: 84%
residual activity [32]: 100%
residual activity [33]: 78%
residual activity [34]: 87%
residual activity [35]: 83%
residual activity [36]: 84%
residual activity [37]: 74%
residual activity [38]: 90%
residual activity [39]: 100%
inhibition [40]: -0.77%
residual activity [41]: 94%
residual activity [42]: 55%
residual activity [43]: 86%
residual activity [44]: 74%
residual activity [45]: 100%

O=C(NCc1ncc(C(F)(F)F)cc1Cl)c1ccc2c(c1)C1(CCS(=O)(=O)CC1)[C@H](C1CC1)N2S(=O)(=O)c1ccc(F)cc1 [BAY-784]
residual activity [1]: 100%
residual activity [2]: 100%
residual activity [3]: 91%
residual activity [4]: 80%
residual activity [5]: 100%
residual activity [6]: 91%
residual activity [7]: 86%
residual activity [8]: 99%
residual activity [9]: 98%
residual activity [10]: 83%
residual activity [11]: 100%
residual activity [12]: 76%
residual activity [13]: 100%
residual activity [14]: 100%
residual activity [15]: 100%
residual activity [16]: 100%
residual activity [17]: 100%
residual activity [18]: 66%
residual activity [19]: 100%
residual activity [20]: 98%
residual activity [21]: 86%
residual activity [22]: 83%
residual activity [23]: 100%
residual activity [24]: 100%
residual activity [25]: 100%
residual activity [26]: 100%
residual activity [27]: 77%
residual activity [28]: 99%
residual activity [29]: 77%
residual activity [30]: 100%
residual activity [31]: 90%
residual activity [32]: 88%
residual activity [33]: 58%
residual activity [34]: 100%
residual activity [35]: 99%
residual activity [36]: 100%
residual activity [37]: 100%
residual activity [38]: 87%
residual activity [39]: 100%
inhibition [40]: -2.87%
residual activity [41]: 86%
residual activity [42]: 87%
residual activity [43]: 87%
residual activity [44]: 84%
residual activity [45]: 100%
